Experimental data taken from patent US6242478A, “Five member ring sulfenate esters and thiosulfinate esters” (Wake Forest University, priority 1999, dated 2001).
Where two headings read alike, the source gives them in different places.

Legend:
[1] = system: GATA-1; conditions: in words; cited from earlier work
[2] = system: CEM-SS cells; conditions: cited from earlier work
[3] = system: NCp7 protein; conditions: cited from earlier work; for ejection of zinc from NCp7: in words; for TSQ NCp7 Assay: unit not given
[4] = target: T1, NCp7 (Human immunodeficiency virus type 1 group M subtype B, UniProt P12493); conditions: 50 μM, reference compounds; cited from earlier work
T1 construct: HIV-1 nucleocapsid protein (NCp7)

[5] = system: Sp1; conditions: in words; cited from earlier work
[6] = system: enzymatic activities of the viral replication cycle; conditions: in words; cited from earlier work
[7] = system: HIV-1RF; conditions: cited from earlier work; for activity against HIV-1 in XTT-based cytoprotection assay: in words
[8] = system: HeLa nuclear extract; conditions: CMV promoter, duck HBV sequence; cited from earlier work
[9] = system: fresh human monocyte/macrophage cultures; conditions: toxicity; cited from earlier work
[10] = system: HIV-1ADA; conditions: fresh human monocyte/macrophage cultures, cited from earlier work; for EC50: HIV-1ADA; for activity against replication of monocytotropic HIV-1ADA: in words
[11] = system: poly (ADP-ribose) polymerase (PARP); conditions: in words; cited from earlier work
[12] = target: T2, NCp7 (Human immunodeficiency virus type 1 group M subtype B, UniProt P04591); conditions: DFT calculation (Maynard et al., 1998); cited from earlier work
T2 construct: HIV-1 nucleocapsid protein (NCp7)

[13] = system: phase II enzymes; conditions: in words; cited from earlier work
[14] = system: GST; conditions: mice; cited from earlier work
[15] = system: Ferritin H mRNA; assay: Ferritin H mRNA induction, Northern blot; type: cell-based, mouse; conditions: 80 μM, 24 hours
Description: (§1) BNL.CL2 cells were treated with Oltipraz, compound 121 described above, and compound 123 described above. All compounds were applied to the cells at 100 micromolar concentration for 24 hours.
(§2) Cells were exposed to compounds at a final concentration of 80 μM for 24 hours. RNA was isolated and analyzed by Northern blotting for the expression of the indicated genes. Control cells were incubated with vehicle alone (0.4% DMSO).
(§3) Northern blot: Treatment of BNL.CL2 cells with 100 μM Oltipraz, ALH-556, and ALH-562, ALH-561, ED 13.4, ED 14.6, DCF 070, ALH-490
(§4) BNL.CL2 cells (normal mouse embryonic liver cell line) were plated at ~3×10^5 cells/ml, grown for 16-24 hours, and treated with 0 μM and 100 μM Oltipraz, ALH-556 (121), and ALH-562 (123) for 24 hours. All three compounds were dissolved in DMSO and the final DMSO concentration present in all treatment conditions was 0.2%. BNL.CL2 cells were harvested by trypsinization and total RNA was isolated using the Trizol reagent (Gibco BRL) according to the manufacturer's procedures. 15 μg of RNA were run on a 1.1% agarose/6.6% formaldehyde gel and transferred overnight onto nitrocellulose membranes by capillary transfer using 20×SSC as transfer buffer. Subsequent to RNA transfer, the nitrocellulose membrane was baked at 80° C. for 2 hours. RNA was analyzed using a radiolabeled mouse ferritin H and human GST-α c-DNA. A human β-actin probe was used as an internal standard. The c-DNA probes were labeled with [α^32 P]dCTP by a random prime labeling. Hybridization of the c-DNA probes to the nitrocellulose membrane was performed at 68° C. for 60 minutes using the Quick-Hyb solution (Stratagene). Membranes were subjected to phosphoimager analysis after hybridization.

[16] = system: HIV-1; conditions: Prochaska et al., 1993; cited from earlier work
[17] = system: DT-diaphorase (NQO1) mRNA; assay: NQO1 mRNA induction, Northern blot; type: cell-based, mouse; conditions: 80 μM, 24 hours
Description: as §1, §2, §3, §4

[18] = Dimitrov et al., 1992; cited from earlier work
[19] = system: GST alpha mRNA in BNL.CL2 cells; assay: GST alpha mRNA induction, Northern blot; type: cell-based, mouse; conditions: for GST α induction (mRNA): 80 μM, Northern blot; for GST α induction (mRNA) / activation at 100 µM: 24 hours; for activation at 100 µM: Mus musculus, BNL CL.2, BNL.CL2 cells, 100 micromolar, read-out: increase in GST alpha mRNA levels
Description: as §1, §2, §3, §4

[20] = system: GST; conditions: rats; cited from earlier work
[21] = system: GST alpha mRNA in BNL.CL2 cells; assay: GST alpha mRNA induction, Northern blot; type: cell-based, mouse; conditions: 48 and 72h post treatment, in words
[22] = system: glutathione-S-transferase (GST); conditions: cited from earlier work
[23] = toxicity, CEM-SS cells, read-out: XTT assay IC50
[24] = CEM-SS cells, HIV-1RF, read-out: XTT assay EC50

## O=S1(=O)C[C@H](O)[C@H](O)CS1 (relative stereo) [compound 8]
[1]
  specific binding of GATA-1 to DNA target: does not affect poly (ADP-ribose) polymerase (PARP) activity or alter specific binding
[2]; [23]
  IC50: 184 µM
[2]; two fold excess of glutathione (GSH), read-out: XTT assay IC50 with GSH
  IC50: > 200 µM
[3]
  ejection of zinc from NCp7: promoted ejection of zinc
  TSQ NCp7 Assay: 17
[3]; listed as NSC 624151 (8)
  ejection of zinc from NCp7: found to promote zinc ejection from the NCp7 protein
[4]
  NCp7 Trp37 Assay, % Decrease RFU/30 min, without GSH: 17 % Decrease RFU/30 min
[5]
  specific binding of Sp1 to DNA target: does not affect poly (ADP-ribose) polymerase (PARP) activity or alter specific binding
[6]
  effect on enzymatic activities of the viral replication cycle: no other observable effect
[7]; [24]
  EC50: 6.6 µM
[7]
  activity against HIV-1 in XTT-based cytoprotection assay: active
[7]; two fold excess of glutathione (GSH), read-out: XTT assay EC50 with GSH
  EC50: 64.2 µM
[8]
  in vitro transcription: did not significantly alter
[9]
  IC50: > 100 µM
[10]
  EC50: 8 µM
  activity against replication of monocytotropic HIV-1ADA: active
[11]
  effect on PARP activity: does not affect

## O=S1(=O)C[C@@H](O)[C@H](O)CS1 (relative stereo) [compound 9]
[2]; [23]
  IC50: 135 µM
[3]
  ejection of zinc from NCp7: promoted ejection of zinc
  TSQ NCp7 Assay: 20
[7]; [24]
  EC50: 13 µM
[7]
  activity against HIV-1 in XTT-based cytoprotection assay: active
[12]
  ratio of electronegativity to hardness (.chi.^2 /.eta.): 0.2260
[9]
  IC50: > 100 µM
[10]
  EC50: 9.1 µM
  activity against replication of monocytotropic HIV-1ADA: active

## Cc1c(-c2cnccn2)ssc1=S [Oltipraz]
[13]
  induction of phase I / phase II enzymes: monofunctional inducers
[14]
  elevation of GST levels: elevate levels of GST
[15]
  Ferritin H induction (mRNA): +
[16]
  prevention of HIV-1 replication: prevent HIV-1 replication
[17]
  NQO1 induction (mRNA): +
[18]
  toxicities: photosensitivity/heat intolerance, GI effects, and neurologic toxicities
[19]
  GST α induction (mRNA): +
  activation at 100 µM: 340%
[20]
  elevation of GST levels: elevate levels of GST

## C=CCS[S+]([O-])CC=C (stereo not drawn) [allicin]
[14]
  elevation of GST levels: elevate levels of GST
[20]
  elevation of GST levels: elevate levels of GST

## CC(=O)OCC1(COC(C)=O)CSS(=O)(=O)C1 [compound 7]
[2]; [23]
  IC50: 30 µM
[3]
  ejection of zinc from NCp7: promoted ejection of zinc
  TSQ NCp7 Assay: 18
[4]
  NCp7 Trp37 Assay, % Decrease RFU/30 min, without GSH: 18 % Decrease RFU/30 min
[7]; [24]
  EC50: 9.8 µM
[7]
  activity against HIV-1 in XTT-based cytoprotection assay: active
[9]
  IC50: > 100 µM
[10]
  EC50: 21 µM
  activity against replication of monocytotropic HIV-1ADA: active

## CC1=C(C2=CCCCC2)S(=O)OC1 (stereo not drawn) [compound 123, 4-methyl-5-cyclohexenyl-1,2-oxathiol-4-en-1-yl oxide]
[15]
  Ferritin H induction (mRNA): +
[21]
  time course of GST levels: slight additional increases in GST levels
[17]
  NQO1 induction (mRNA): +
[19]
  GST α induction (mRNA): +
  activation at 100 µM: 430%
[19]; in words
  inducing activity (GST, NQO1 and Ferritin H): high levels of inducing activity

## N[C@@H](CCC(=O)N[C@@H](CS)C(=O)NCC(=O)O)C(=O)O [glutathione]
[22]; bound to GST
  pKa of the thiol: ~ 6.5
[22]; without enzyme binding
  pKa of the thiol: 9.0
